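Five concentrations, 48 hours, 96-well plates. GI50 = concentration required for 50% inhibition of growth.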 Activity calls are given as the source filed them. Cut-off read from the data, not from the text of the source: active = GI50 up to about 1.1 µM and inactive = higher.
Assays:
Assay in all cases: inhibition of tumour cell growth, NCI panel, 48 h
[1] = tested on: RPMI-8226
[2] = tested on: HCT-116
[3] = tested on: Malme-3M
[4] = tested on: TK-10
[5] = tested on: SW-620
[6] = tested on: M14
[7] = tested on: OVCAR-4
[8] = tested on: SN12C
[9] = tested on: SF-268
[10] = tested on: LOX IMVI
[11] = tested on: NCI-H460
[12] = tested on: M19-MEL
[13] = tested on: XF498
[14] = tested on: OVCAR-5
[15] = tested on: A549
[16] = tested on: KM-20L2

Measured: GI50

O=c1[nH]c(=O)n(C2OC(CO)C(O)C2O)cc1OCc1ccccc1 (configuration not stated)
inactive: [1] > 57.9 µM | [2] > 63.4 µM | [3] > 100 µM | [4] > 100 µM | [5] > 57 µM | [6] > 100 µM | [7] > 100 µM | [8] > 100 µM | [9] > 100 µM | [10] > 31.6 µM | [11] > 66.7 µM | [12] > 95.5 µM | [13] > 100 µM | [14] > 100 µM | [15] > 87.3 µM | [16] > 81.7 µM

Cc1ccc(-c2cc(=O)c3cc(C)c(C)c(C(=O)O)c3o2)cc1N
inactive: [1] > 100 µM | [2] > 100 µM | [3] > 100 µM | [4] > 100 µM | [5] > 100 µM | [6] > 100 µM | [7] > 100 µM | [8] > 100 µM | [9] > 100 µM | [10] > 100 µM | [11] > 100 µM | [12] > 100 µM | [13] > 100 µM | [14] > 100 µM | [15] > 100 µM | [16] > 100 µM

COc1cc2c(cc1OC)CC(=O)Nc1cc(OC)c(OC)cc1CC2
inactive: [1] 2.89 µM | [2] 49 µM | [3] 20.8 µM | [4] > 77.4 µM | [5] 47.9 µM | [6] 36.1 µM | [7] > 53.5 µM | [8] 45.9 µM | [9] 80.9 µM | [10] > 82.4 µM | [11] 39.3 µM | [12] 31.8 µM | [13] > 100 µM | [14] > 83.8 µM | [15] 63 µM | [16] 48.4 µM

CC(C)=CC1C[C@H](C2CC=C3C2(C)CCC2[C@@]3(C)C(=O)CC3[C@]2(C)C=CC(=O)[C@]3(C)CO)CO1 (some centres not stated)
inactive: [1] 3.15 µM | [2] 3.37 µM | [3] 11.5 µM | [4] 25.8 µM | [5] 4.28 µM | [6] 3.12 µM | [7] 10.7 µM | [8] 20.3 µM | [9] 5.82 µM | [10] 3.76 µM | [11] 11.6 µM | [12] 3.85 µM | [13] 4.93 µM | [14] 21 µM | [15] 20.8 µM | [16] 5.42 µM

CC(=O)C1C(c2ccccc2)C2(C)OC(=O)C(C#N)C12C (configuration not stated)
inactive: [1] > 100 µM | [2] > 100 µM | [3] > 100 µM | [4] > 100 µM | [5] > 100 µM | [6] > 100 µM | [7] > 100 µM | [8] > 100 µM | [9] > 100 µM | [10] > 100 µM | [11] > 100 µM | [12] > 100 µM | [13] > 100 µM | [14] > 100 µM | [15] > 100 µM | [16] > 100 µM

Brc1cccc(/C=N/C23CC4CC(CC(C4)C2)C3)c1
inactive: [1] > 100 µM | [2] > 100 µM | [3] > 100 µM | [4] > 100 µM | [5] > 100 µM | [6] > 100 µM | [7] > 100 µM | [8] > 100 µM | [9] > 100 µM | [10] > 100 µM | [11] > 100 µM | [12] > 100 µM | [13] > 100 µM | [14] > 100 µM | [15] > 100 µM | [16] > 100 µM

CCC(=C(c1ccc(OCc2ccccc2)cc1)c1ccc(OCc2ccccc2)cc1)c1ccc(OC)cc1
inactive: [1] > 100 µM | [2] > 100 µM | [3] > 100 µM | [4] > 100 µM | [5] > 100 µM | [6] > 100 µM | [7] > 100 µM | [8] > 100 µM | [9] > 100 µM | [10] > 100 µM | [11] > 100 µM | [12] > 100 µM | [13] > 100 µM | [14] > 100 µM | [15] > 100 µM | [16] > 100 µM

Source: ChEMBL document CHEMBL1201862, “PubChem BioAssay data set” (2004)
